For assay [1], the target named is T1, AMD1 (Homo sapiens, UniProt P17707).
T1 construct: Full-length genes encoding three probe 1- and one probe 2-targeted proteins were amplified from a cDNA library; expressed in transfected cells; host or cells: HEK293T
T1 sequence (P17707 68-334 limits assumed): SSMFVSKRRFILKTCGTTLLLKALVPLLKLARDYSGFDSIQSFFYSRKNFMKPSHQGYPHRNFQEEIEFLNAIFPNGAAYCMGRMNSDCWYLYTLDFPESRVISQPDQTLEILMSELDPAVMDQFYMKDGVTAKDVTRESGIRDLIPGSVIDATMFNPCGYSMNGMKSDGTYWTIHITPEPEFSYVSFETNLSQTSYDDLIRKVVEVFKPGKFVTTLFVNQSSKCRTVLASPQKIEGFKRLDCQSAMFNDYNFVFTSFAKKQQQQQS
T1 sequence (P17707 1-67 limits assumed): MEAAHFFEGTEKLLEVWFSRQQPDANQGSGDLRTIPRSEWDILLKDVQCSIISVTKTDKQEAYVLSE
To be noted: literature statement; cited from earlier work.

The target in assay [2] is T1, AMD1. The experiment in a line: expression and probe 1 labelling of endogenous AMD1 after DFMO. The format is cell-based. To be noted: HEK293T, DFMO 5 mM 48 h, 10 μM L-methionine. On the procedure: To enhance expression and labelling of endogenous AMD1, HEK293T cells were treated with difluoromethylornithine (DFMO; purchased from Santa Cruz Biotechnology) (5 mM) for 48 h in RPMI 1640 media (Fisher Scientific, A14517-01) containing 10 μM L-methionine. Cells were washed and treated with probe 1 in the absence of methionine. […] Probe 1-labelling, proteome preparation, fluorophore conjugation, gel-based analysis and western blotting were performed as described above in Examples 2 and 3. Band intensities were quantified using ImageJ software^75. […] Briefly, about 0.5 mg soluble proteomes isolated from probe 1-labelled AMD1-transfected cells grown in low versus high methionine were each diluted to 1 mL with 50 mM Na-HEPES buffer (pH 7.5) supplemented with 500 mM NaCl and 1% Triton X-100. Each proteome was incubated overnight at 4° C. by rotation with a pre-equilibrated slurry (25 μL resin (CV), anti-FLAG M2 affinity gel, Sigma). The resin was washed by resuspension and centrifugation with the same buffer supplemented with 500 mM NaCl (5×1 mL) followed by 100 mM NaCl (2×1 mL). The bound AMD1 protein was eluted in 100 μL of low salt buffer containing […] (FLAG)3 peptide [DYKDHD-(G)-DYKDHD-(I)-DYKD4K] (SEQ ID NO: 47). To prevent contamination from the excess (FLAG)3 peptide in the elution, the protein was purified by gel. […]

On to difluoromethylornithine [DFMO], for which the “effect on expression of AMD1” value on AMD1 [1] is given as “increase the expression of AMD1”. Besides, on AMD1 [2], the “change in endogenous active AMD1 detected by probe 1” value is recorded as “DMFO-induced changes in the endogenous concentration of active AMD1”.
